Measurements taken from patent US11465986B2, “Crystal form of c-MET inhibitor and salt form thereof and preparation method therefor” (FUJIAN AKEYLINK BIOTECHNOLOGY CO., LTD., priority 2018, dated 2022).
Values joined by “and” are separate entries in the source; they are usually repeats but may differ in a detail not shown here. Equal values may be shown once. “Also recorded” adds a separate entry of the source.

Assays:
Assay type in all cases: physicochemical
[1] = Stability test of the crystal forms (HPLC impurity content); conditions: for Stability, conclusion in words: stress conditions (high temperature, high humidity, light)
Description: The method for High Performance Liquid Chromatograph (HPLC) in the present disclosure
Instrument Model: Agilent 1200 High Performance Liquid Chromatograph
The analysis method is as follows: […]
About 10 mg of the crystal form B of the compound represented by formula (II) was weighted and placed under stability test conditions, and the samples were collected and analyzed after 5 days, 10 days, and 1 month.
About 10 mg of the crystal form C of the compound represented by formula (III) was weighted and placed under stability test conditions, and the samples were collected and analyzed after 5 days, 10 days, and 1 month respectively.

[2] = Hygroscopicity study (weight gain over saturated ammonium chloride solution, 25° C., 24 hours)
Description: The hygroscopicity was evaluated using the scales in the following Table 4:
3 dry glass weighing bottles with stopper (outer diameter of 50 mm, height of 30 mm) were placed in a desiccator having saturated ammonium chloride solution placed at the bottom, the weighing bottles were left open, and the desiccator was covered with lid, placed in a thermostat setting at 25° C. overnight.
The weighing bottles were took out and accurately weighed, the weight data were noted as m11, m12 and m13 respectively.
An appropriate amount of the crystal form A of the compound represented by formula (I), was spread in the weighed weighing bottles (the thickness of the sample was about 1 mm), and then accurately weighed, the weight data were noted as m21, m22 and m23, respectively.
The open weighing bottles and the bottle stoppers were placed in a desiccator having saturated ammonium chloride solution placed at the bottom, and the desiccator was covered with a lid, placed in a thermostat setting at 25° C. for 24 hours.
After standing for 24 hours, the weighing bottles were closed with the stoppers, then accurately weighed, and the weight data were noted as m31, m32 and m33.
Hygroscopicity weight gain was calculated, the calculation formula was as follows: Percentage gain=100%×(m3−m2)/(m2−m1)

[3] = Stability test of the crystal forms (HPLC impurity content); conditions: form A, 5 days
[4] = Solubility test in different solvents; conditions: 25° C.±2° C.
Description: (§1) 10 mg of the crystal form A of the compound represented by formula (I) was placed into a glass bottle, 1 mL of solvent was added thereto and the bottle was shaken vigorously for 30 seconds every 5 minutes at 25° C.±2° C., the dissolution was observed over 30 minutes. The corresponding data were recorded in the table.
as §1, with “For insoluble samples, another 1” for “10”, “an appropriate” for “1 mL of”, “thereto,” for “thereto”, “Table 10.” for “the table.”

[5] = form C, Light (total illuminance = 1.2 × 106 Lux · hr/near ultraviolet = 200 w · hr/m^2)
[6] = form A, 40° C. Relative humidity 75%, 1 month
[7] = form A, 40° C. Relative humidity 75%, 2 months
[8] = form A, 40° C. Relative humidity 75%, 10 days
[9] = form A, 60° C. Relative humidity 75%, 1 month
[10] = form A, 60° C. Relative humidity 75%, 2 months
[11] = form A, 60° C. Relative humidity 75%, 10 days
[12] = form A, Light (total illuminance = 1.2 × 106 Lux · hr/near ultraviolet = 200 w · hr/m^2)
[13] = form A, Relative humidity 92.5%, 5 days
[14] = form A, Relative humidity 92.5%, 10 days
[15] = form B, 40° C. relative humidity 75%, 1 month
[16] = form B, 40° C. relative humidity 75%, 10 days
[17] = form B, 60° C. relative humidity 75%, 1 month
[18] = form B, 60° C. relative humidity 75%, 10 days
[19] = form B, Light (total illuminance = 1.2 × 106 Lux · hr/near ultraviolet = 200 w · hr/m^2)
[20] = form B, Relative humidity 92.5%, 1 month
[21] = form B, Relative humidity 92.5%, 5 days
[22] = form B, Relative humidity 92.5%, 10 days

C[C@H](c1cccc(-c2ncc(OCC3CCN(C)CC3)cn2)c1)n1cc(-c2cc(C#N)ccn2)cc(F)c1=O [crystal form C of the compound represented by formula (III)]
Total impurities ([1]; form C, 0 day): 2.22% | Total impurities ([1]; form C, 40° C. Relative humidity 75%, 1 month): 2.31% | Total impurities ([1]; form C, 40° C. Relative humidity 75%, 10 days): 2.26% | Total impurities ([1]; form C, 60° C. Relative humidity 75%, 1 month): 12.75% | Total impurities ([1]; form C, 60° C. Relative humidity 75%, 10 days): 6.04% | Total impurities ([1]; form C, 60° C., 1 month): 2.35% | Total impurities ([1]; form C, 60° C., 5 days): 2.27% | Total impurities ([1]; form C, 60° C., 10 days): 2.35% | Impurity content, relative retention time 0.45 (column inferred) [1, 5]: 0.05% | Impurity content, relative retention time 0.7 (column inferred) [1, 5]: 0.12% | Impurity content, relative retention time 0.75 (column inferred) [1, 5]: 0.05% | Impurity content, relative retention time 0.87 or 0.94 (column inferred) [1, 5]: 0.24% | Total impurities [1, 5]: 2.94% | Total impurities ([1]; form C, Relative humidity 92.5%, 1 month): 2.28% | Total impurities ([1]; form C, Relative humidity 92.5%, 5 days): 2.29% | Total impurities ([1]; form C, Relative humidity 92.5%, 10 days): 2.22% | Stability, conclusion in words [1]: relatively stable under high temperature and high humidity conditions

C[C@H](c1cccc(-c2ncc(OCC3CCN(C)CC3)cn2)c1)n1cc(-c2cc(C#N)ccn2)cc(F)c1=O [crystal form A of the compound represented by formula (I)]
Average value of percentage gain (average hygroscopicity) ([2]; 25° C., 24 hours over saturated ammonium chloride solution, mean of 3 samples): 0.060% | Percentage gain (hygroscopic weight gain), single samples ([2]; 25° C., 24 hours over saturated ammonium chloride solution, samples No. 1-3): 0.03% and 0.08% and 0.07% | Hygroscopicity scale ([2]; classified by the average weight gain): no or almost no hygroscopicity | Total impurities ([3]; 60° C.): 0.99% | Impurity content, relative retention time 1.07 ([3]; Relative humidity 92.5%): 0.53% | Impurity content, relative retention time 0.93 ([1]; form A, 0 day): 0.14% | Impurity content, relative retention time 1.07 ([1]; form A, 0 day): 0.52% | Total impurities ([1]; form A, 0 day): 0.67% | Impurity content, relative retention time 0.93 [1, 6]: 0.12% | Impurity content, relative retention time 1.07 [1, 6]: 0.45% | Total impurities [1, 6]: 0.63% | Impurity content, relative retention time 0.93 [1, 7]: 0.15% | Impurity content, relative retention time 1.07 [1, 7]: 0.52% | Total impurities [1, 7]: 0.66% | Impurity content, relative retention time 0.93 [1, 8]: 0.14% | Impurity content, relative retention time 1.07 [1, 8]: 0.5% | Total impurities [1, 8]: 0.58% | Impurity content, relative retention time 0.93 [1, 9]: 0.13% | Impurity content, relative retention time 1.07 [1, 9]: 0.49% | Total impurities [1, 9]: 0.62% | Impurity content, relative retention time 0.93 [1, 10]: 0.17% | Impurity content, relative retention time 1.07 [1, 10]: 0.59% | Total impurities [1, 10]: 0.75% | Impurity content, relative retention time 0.93 [1, 11]: 0.14% | Impurity content, relative retention time 1.07 [1, 11]: 0.53% | Total impurities [1, 11]: 0.67% | Impurity content, relative retention time 0.93 ([1]; form A, 60° C., 5 days): 0.12% | Impurity content, relative retention time 0.99 ([1]; form A, 60° C., 5 days): 0.13% | Impurity content, relative retention time 1.07 ([1]; form A, 60° C., 5 days): 0.47% | Impurity content, relative retention time 1.39 ([1]; form A, 60° C., 5 days): 0.17% | Impurity content, relative retention time 1.48 ([1]; form A, 60° C., 5 days): 0.1% | Impurity content, relative retention time 0.93 ([1]; form A, 60° C., 10 days): 0.12% | Impurity content, relative retention time 0.99 ([1]; form A, 60° C., 10 days): 0.19% | Impurity content, relative retention time 1.05 ([1]; form A, 60° C., 10 days): 0.14% | Impurity content, relative retention time 1.07 ([1]; form A, 60° C., 10 days): 0.45% | Impurity content, relative retention time 1.39 ([1]; form A, 60° C., 10 days): 0.41% | Impurity content, relative retention time 1.43 ([1]; form A, 60° C., 10 days): 0.11% | Impurity content, relative retention time 1.48 ([1]; form A, 60° C., 10 days): 0.23% | Total impurities ([1]; form A, 60° C., 10 days): 1.64% | Impurity content, relative retention time 0.93 [1, 12]: 0.11% | Impurity content, relative retention time 0.99 [1, 12]: 0.29% | Impurity content, relative retention time 1.05 [1, 12]: 0.8% | Impurity content, relative retention time 1.07 [1, 12]: 0.46% | Impurity content, relative retention time 1.39 [1, 12]: 3.98% | Impurity content, relative retention time 1.43 [1, 12]: 1.18% | Impurity content, relative retention time 1.48 [1, 12]: 1.62% | Total impurities [1, 12]: 13.45% | Impurity content, relative retention time 0.93 [1, 13]: 0.14% | Total impurities [1, 13]: 0.67% | Impurity content, relative retention time 0.93 [1, 14]: 0.14% | Impurity content, relative retention time 1.07 [1, 14]: 0.52% | Total impurities [1, 14]: 0.67% | Stability, conclusion in words [1]: good stability | Solubility classification ([4]; 0.1N HCl): Soluble | Solubility classification ([4]; 0.1N NaOH): practically insoluble or insoluble; also recorded: Practically insoluble | Solubility classification ([4]; Acetonitrile): Very slightly soluble | Solubility classification ([4]; Diethylamine): practically insoluble or insoluble; also recorded: Practically insoluble | Solubility classification ([4]; Ethanol): very slightly soluble | Solubility classification ([4]; Ethyl acetate): Very slightly soluble | Solubility classification ([4]; N-Methylpyrrolidone): Very soluble | Solubility classification ([4]; Tetrahydrofuran): Sparingly soluble | Solubility classification ([4]; Trifluoroacetic acid): Sparingly soluble | Solubility classification ([4]; acetone): Slightly soluble | Solubility classification ([4]; n-Hexane): practically insoluble or insoluble; also recorded: Practically insoluble | Solubility classification ([4]; water): Very soluble

C[C@H](c1cccc(-c2ncc(OCC3CCN(C)CC3)cn2)c1)n1cc(-c2cc(C#N)ccn2)cc(F)c1=O.Cl
Impurity content, relative retention time 0.77 ([1]; form B, 0 day): 0.05% | Impurity content, relative retention time 1.04 ([1]; form B, 0 day): 2.18% | Total impurities ([1]; form B, 0 day): 2.24% | Impurity content, relative retention time 0.77 [1, 15]: 0.23% | Impurity content, relative retention time 1.04 [1, 15]: 1.95% | Total impurities [1, 15]: 2.18% | Impurity content, relative retention time 0.77 [1, 16]: 0.18% | Impurity content, relative retention time 1.04 [1, 16]: 2.02% | Total impurities [1, 16]: 2.2% | Impurity content, relative retention time 0.77 [1, 17]: 0.36% | Impurity content, relative retention time 1.04 [1, 17]: 1.76% | Total impurities [1, 17]: 2.12% | Impurity content, relative retention time 0.77 [1, 18]: 0.42% | Impurity content, relative retention time 1.04 [1, 18]: 1.72% | Total impurities [1, 18]: 2.13% | Impurity content, relative retention time 0.77 ([1]; form B, 60° C., 1 month): 0.05% | Impurity content, relative retention time 1.04 ([1]; form B, 60° C., 1 month): 2.27% | Impurity content, relative retention time 1.4 ([1]; form B, 60° C., 1 month): 0.28% | Impurity content, relative retention time 1.41 ([1]; form B, 60° C., 1 month): 0.07% | Impurity content, relative retention time 1.43 ([1]; form B, 60° C., 1 month): 0.06% | Impurity content, relative retention time 1.49 ([1]; form B, 60° C., 1 month): 0.05% | Total impurities ([1]; form B, 60° C., 1 month): 2.78% | Impurity content, relative retention time 0.77 ([1]; form B, 60° C., 5 days): 0.06% | Impurity content, relative retention time 1.04 ([1]; form B, 60° C., 5 days): 2.18% | Impurity content, relative retention time 1.4 ([1]; form B, 60° C., 5 days): 0.06% | Total impurities ([1]; form B, 60° C., 5 days): 2.3% | Impurity content, relative retention time 1.04 ([1]; form B, 60° C., 10 days): 2.16% | Impurity content, relative retention time 1.4 ([1]; form B, 60° C., 10 days): 0.12% | Total impurities ([1]; form B, 60° C., 10 days): 2.29% | Impurity content, relative retention time not resolvable (one of 1.4 to 1.49) [1, 19]: 0.17% | Total impurities [1, 19]: 2.39% | Impurity content, relative retention time 0.77 [1, 20]: 0.2% | Impurity content, relative retention time 1.04 [1, 20]: 2.03% | Total impurities [1, 20]: 2.23% | Impurity content, relative retention time 0.77 [1, 21]: 0.13% | Impurity content, relative retention time 1.04 [1, 21]: 2.08% | Total impurities [1, 21]: 2.21% | Impurity content, relative retention time 0.77 [1, 22]: 0.16% | Impurity content, relative retention time 1.04 [1, 22]: 2.04% | Total impurities [1, 22]: 2.2% | Stability, conclusion in words [1]: stable under high temperature and light conditions
